Results on twelve molecules are retold here after patent publication US9701670B2, “Pyrazolyl-ureas as kinase inhibitors” (RESPIVERT LIMITED, priority 2013, dated 2017).

In series [1] the target is p38 MAPKα isoform (MAPK14) (Homo sapiens (Human), UniProt Q16539). Nature of the series: p38 MAPKα enzyme inhibition (FRET, Z-LYTE), Method 1. The following applies: Method 1 (Table 4a1). It counts as biochemical.
Series [2] has as its system Differentiated U937 cells. Nature of the series: (l) Cell viability: MTT assay. The class given is cell-based, human. Particulars: 1 μg/mL. An outline of the steps: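 Differentiated U937 cells were exposed to compound at 1 or 10 μg/mL either 4 h in 5% FCS RPMI1640 or 24 h in 10% FCS RPMI1640, then given MTT for 1 h, DMSO-solubilised and read at 550 nm. Percent viability loss versus 0.5% DMSO vehicle; apparent gains appear negative.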

Structures are written as SMILES. Where only a bound is given, the exact number is not on record here.

Sequence of p38 MAPKα isoform (MAPK14) (Q16539 whole entry, canonical isoform): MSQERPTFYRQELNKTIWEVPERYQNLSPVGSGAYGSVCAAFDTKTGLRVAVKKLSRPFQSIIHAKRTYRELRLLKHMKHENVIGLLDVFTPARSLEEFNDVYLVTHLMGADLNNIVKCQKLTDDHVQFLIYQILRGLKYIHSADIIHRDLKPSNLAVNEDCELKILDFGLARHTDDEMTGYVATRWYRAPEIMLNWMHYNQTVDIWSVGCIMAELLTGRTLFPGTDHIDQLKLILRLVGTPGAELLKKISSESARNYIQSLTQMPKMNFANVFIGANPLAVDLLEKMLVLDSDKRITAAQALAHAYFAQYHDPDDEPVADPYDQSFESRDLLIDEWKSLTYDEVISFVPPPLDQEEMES

In turn, `COc1ccc(-n2nc(C(C)C)cc2NC(=O)Nc2ccc(Oc3ccnc(Nc4cc(C(=O)NCCN5CCOCC5)cc(C(F)(F)F)c4)n3)c3ccccc23)cc1` [Example 47] registered an IC50 in series [1] of 10 nM. In series [2], the “Cell viability at time point in d-U937 cells 4 h” value is “−ve (−ve and +ve indicate that the value is below and above respectively, the no significant effect threshold, defined as 30% inhibition at 1 μg/mL at the time point indicated.)”; the “Cell viability at time point in d-U937 cells 24 h” value was “−ve (−ve and +ve indicate that the value is below and above respectively, the no significant effect threshold, defined as 30% inhibition at 1 μg/mL at the time point indicated.)”.

For `COc1cc(Nc2nccc(Oc3ccc(NC(=O)Nc4cc(C(F)(F)F)nn4-c4ccc(C)cc4)c4ccccc34)n2)cc(C(=O)NCCN2CCOCC2)c1` [Example 48, 3-methoxy-N-(2-morpholinoethyl)-5-((4-((4-(3-(1-(p-tolyl)-3-(trifluoromethyl)-1H-pyrazol-5-yl)ureido)naphthalen-1-yl)oxy)pyrimidin-2-yl)amino)benzamide], the IC50 in series [1] was 18 nM. For the same molecule, in series [2], the “Cell viability at time point in d-U937 cells 4 h” value was “−ve (−ve and +ve indicate that the value is below and above respectively, the no significant effect threshold, defined as 30% inhibition at 1 μg/mL at the time point indicated.)”; the “Cell viability at time point in d-U937 cells 24 h” value is “−ve (−ve and +ve indicate that the value is below and above respectively, the no significant effect threshold, defined as 30% inhibition at 1 μg/mL at the time point indicated.)”.

In turn, `COc1cc(Nc2nccc(Oc3ccc(NC(=O)Nc4cc(C5(C)CC5)nn4-c4ccc(C)cc4)c4ccccc34)n2)cc(C(=O)NCCN2CCOCC2)c1` [Example 51, 3-methoxy-5-((4-((4-(3-(3-(1-methylcyclopropyl)-1-(p-tolyl)-1H-pyrazol-5-yl)ureido)naphthalen-1-yl)oxy)pyrimidin-2-yl)amino)-N-(2-morpholinoethyl)benzamide] gave a 50% inhibitory concentration (IC50) in series [1] of 15 nM. In series [2], the “Cell viability at time point in d-U937 cells 4 h” value was “−ve (−ve and +ve indicate that the value is below and above respectively, the no significant effect threshold, defined as 30% inhibition at 1 μg/mL at the time point indicated.)”; the “Cell viability at time point in d-U937 cells 24 h” value was “−ve (−ve and +ve indicate that the value is below and above respectively, the no significant effect threshold, defined as 30% inhibition at 1 μg/mL at the time point indicated.)”.

`COc1cc(Nc2nccc(Oc3ccc(NC(=O)Nc4cc(C(C)(C)C)nn4-c4ccc(C)cc4)c4ccccc34)n2)cc(C(=O)NCCN2CCOCC2)c1` [Example 52, 3-((4-((4-(3-(3-(tert-butyl)-1-(p-tolyl)-1H-pyrazol-5-yl)ureido)naphthalen-1-yl)oxy)pyrimidin-2-yl)amino)-5-methoxy-N-(2-morpholinoethyl)benzamide] displayed a half-maximal inhibitory concentration (IC50) in series [1] of 13 nM. In series [2], the “Cell viability at time point in d-U937 cells 4 h” value is “−ve (−ve and +ve indicate that the value is below and above respectively, the no significant effect threshold, defined as 30% inhibition at 1 μg/mL at the time point indicated.)”; the “Cell viability at time point in d-U937 cells 24 h” value is “−ve (−ve and +ve indicate that the value is below and above respectively, the no significant effect threshold, defined as 30% inhibition at 1 μg/mL at the time point indicated.)”.

In series [1], `COc1ccc(-n2nc(C(C)(C)C)cc2NC(=O)Nc2ccc(Oc3ccnc(Nc4cc(OC)cc(C(=O)NCCN5CCOCC5)c4)n3)c3ccccc23)cc1` [Example 54, 3-((4-((4-(3-(3-(tert-butyl)-1-(4-methoxyphenyl)-1H-pyrazol-5-yl)ureido)naphthalen-1-yl)oxy)pyrimidin-2-yl)amino)-5-methoxy-N-(2-morpholinoethyl)benzamide] came in with an IC50 of 12 nM. Besides, in series [2], the “Cell viability at time point in d-U937 cells 4 h” value is “−ve (−ve and +ve indicate that the value is below and above respectively, the no significant effect threshold, defined as 30% inhibition at 1 μg/mL at the time point indicated.)”; the “Cell viability at time point in d-U937 cells 24 h” value is “−ve (−ve and +ve indicate that the value is below and above respectively, the no significant effect threshold, defined as 30% inhibition at 1 μg/mL at the time point indicated.)”.

The molecule `COCCOc1cccc(-n2nc(C(C)(C)C)cc2NC(=O)Nc2ccc(Oc3ccnc(Nc4cc(OC)cc(C(=O)NCCN5CCOCC5)c4)n3)c3ccccc23)c1` [Example 55, 3-((4-((4-(3-(3-(tert-butyl)-1-(3-(2-methoxyethoxy)phenyl)-1H-pyrazol-5-yl)ureido)naphthalen-1-yl)oxy)pyrimidin-2-yl)amino)-5-methoxy-N-(2-morpholinoethyl)benzamide] yielded an IC50 in series [1] of 9 nM. In addition, in series [2], the “Cell viability at time point in d-U937 cells 4 h” value is “−ve (−ve and +ve indicate that the value is below and above respectively, the no significant effect threshold, defined as 30% inhibition at 1 μg/mL at the time point indicated.)”; the “Cell viability at time point in d-U937 cells 24 h” value is “−ve (−ve and +ve indicate that the value is below and above respectively, the no significant effect threshold, defined as 30% inhibition at 1 μg/mL at the time point indicated.)”.

Turning to `COc1cc(Nc2nccc(Oc3ccc(NC(=O)Nc4cc(C(C)C)nn4-c4ccc(C)c(C)c4)c4ccccc34)n2)cc(C(=O)NCCN2CCOCC2)c1` [Example 56, 3-((4-((4-(3-(1-(3,4-dimethylphenyl)-3-isopropyl-1H-pyrazol-5-yl)ureido)naphthalen-1-yl)oxy)pyrimidin-2-yl)amino)-5-methoxy-N-(2-morpholinoethyl)benzamide], the IC50 in series [1] is < 1 nM. Also, in series [2], the “Cell viability at time point in d-U937 cells 4 h” value was “−ve (−ve and +ve indicate that the value is below and above respectively, the no significant effect threshold, defined as 30% inhibition at 1 μg/mL at the time point indicated.)”; the “Cell viability at time point in d-U937 cells 24 h” value is “−ve (−ve and +ve indicate that the value is below and above respectively, the no significant effect threshold, defined as 30% inhibition at 1 μg/mL at the time point indicated.)”.

`COc1ccc(-n2nc(C3CCCO3)cc2NC(=O)Nc2ccc(Oc3ccnc(Nc4cc(OC)cc(C(=O)NCCN5CCOCC5)c4)n3)c3ccccc23)cc1` (stereo not drawn) [Example 58, 3-methoxy-5-((4-((4-(3-(1-(4-methoxyphenyl)-3-(tetrahydrofuran-2-yl)-1H-pyrazol-5-yl)ureido)naphthalen-1-yl)oxy)pyrimidin-2-yl)amino)-N-(2-morpholinoethyl)benzamide]: the IC50 in series [1] is < 1 nM. In series [2], the “Cell viability at time point in d-U937 cells 4 h” value is “−ve (−ve and +ve indicate that the value is below and above respectively, the no significant effect threshold, defined as 30% inhibition at 1 μg/mL at the time point indicated.)”; the “Cell viability at time point in d-U937 cells 24 h” value was “−ve (−ve and +ve indicate that the value is below and above respectively, the no significant effect threshold, defined as 30% inhibition at 1 μg/mL at the time point indicated.)”.

On to `COc1ccc(-n2nc(C3CCOC3)cc2NC(=O)Nc2ccc(Oc3ccnc(Nc4cc(OC)cc(C(=O)NCCN5CCOCC5)c4)n3)c3ccccc23)cc1` (stereo not drawn) [Example 59, 3-methoxy-5-((4-((4-(3-(1-(4-methoxyphenyl)-3-(tetrahydrofuran-3-yl)-1H-pyrazol-5-yl)ureido)naphthalen-1-yl)oxy)pyrimidin-2-yl)amino)-N-(2-morpholinoethyl)benzamide], for which the IC50 in series [1] turned out to be 2 nM. In addition, in series [2], the “Cell viability at time point in d-U937 cells 4 h” value was “−ve (−ve and +ve indicate that the value is below and above respectively, the no significant effect threshold, defined as 30% inhibition at 1 μg/mL at the time point indicated.)”; the “Cell viability at time point in d-U937 cells 24 h” value was “−ve (−ve and +ve indicate that the value is below and above respectively, the no significant effect threshold, defined as 30% inhibition at 1 μg/mL at the time point indicated.)”.

Regarding `Cc1ccc(-n2nc(C(C)C)cc2NC(=O)Nc2ccc(Oc3ccnc(Nc4cc(Cl)cc(C(=O)NCCN5CCOCC5)c4)n3)c3ccccc23)cc1` [Example 60, 3-chloro-5-((4-((4-(3-(3-isopropyl-1-(p-tolyl)-1H-pyrazol-5-yl)ureido)naphthalen-1-yl)oxy)pyrimidin-2-yl)amino)-N-(2-morpholinoethyl)benzamide], the IC50 in series [1] amounted to 16 nM. Also, in series [2], the “Cell viability at time point in d-U937 cells 4 h” value was “−ve (−ve and +ve indicate that the value is below and above respectively, the no significant effect threshold, defined as 30% inhibition at 1 μg/mL at the time point indicated.)”; the “Cell viability at time point in d-U937 cells 24 h” value was “−ve (−ve and +ve indicate that the value is below and above respectively, the no significant effect threshold, defined as 30% inhibition at 1 μg/mL at the time point indicated.)”.

With `COc1ccc(-n2nc(C(C)C)cc2NC(=O)Nc2ccc(Oc3ccnc(Nc4cc(Cl)cc(C(=O)NCCN5CCOCC5)c4)n3)c3ccccc23)cc1` [Example 61, 3-chloro-5-((4-((4-(3-(3-isopropyl-1-(4-methoxyphenyl)-1H-pyrazol-5-yl)ureido)naphthalen-1-yl)oxy)pyrimidin-2-yl)amino)-N-(2-morpholinoethyl)benzamide], in series [1], the concentration for half-maximal inhibition (IC50) was 20 nM. Also, in series [2], the “Cell viability at time point in d-U937 cells 4 h” value was “−ve (−ve and +ve indicate that the value is below and above respectively, the no significant effect threshold, defined as 30% inhibition at 1 μg/mL at the time point indicated.)”; the “Cell viability at time point in d-U937 cells 24 h” value was “−ve (−ve and +ve indicate that the value is below and above respectively, the no significant effect threshold, defined as 30% inhibition at 1 μg/mL at the time point indicated.)”.

With `Cc1ccc(-n2nc(C(C)(C)C)cc2NC(=O)Nc2ccc(Oc3ccnc(Nc4cc(Br)cc(C(=O)NCCN5CCOCC5)c4)n3)c3ccccc23)cc1` [Example 62, 3-bromo-5-((4-((4-(3-(3-(tert-butyl)-1-(p-tolyl)-1H-pyrazol-5-yl)ureido)naphthalen-1-yl)oxy)pyrimidin-2-yl)amino)-N-(2-morpholinoethyl)benzamide], the IC50 in series [1] was 22 nM. In series [2], the “Cell viability at time point in d-U937 cells 4 h” value is “−ve (−ve and +ve indicate that the value is below and above respectively, the no significant effect threshold, defined as 30% inhibition at 1 μg/mL at the time point indicated.)”; the “Cell viability at time point in d-U937 cells 24 h” value was “+ve (−ve and +ve indicate that the value is below and above respectively, the no significant effect threshold, defined as 30% inhibition at 1 μg/mL at the time point indicated.)”.
